Reference: US5770563A, “Heparin- and sulfatide binding peptides from the type I repeats of human thrombospondin and conjugates thereof” (The United States of America as represented by the …, priority 1995, dated 1998)
Where two headings read alike, the source gives them in different places. Square brackets hold non-standard residues; d marks the D form. Peptide text beside a SMILES is read from it. Mpa = O=C(O)CCS

Tests used:
[1] = target: thrombospondin binding to heparin; assay: Inhibition of 125I-thrombospondin binding to immobilized heparin-BSA; design: species or system human; conditions: for inhibition of thrombospondin binding to heparin, in words: free peptide
Experimental: (§1) The peptides were tested as inhibitors of laminin, thrombospondin or apolipoprotein E binding to a heparin-bovine serum albumen conjugate or to a sulfatide in a solid phase assay essentially following the procedure described in Zabrenetzky et al., Cancer Res., Vol. 50, pages 5937-5942 (1990). Sulfatide (0.2 μg/well for thrombospondin binding, 0.6 μg/well for laminin binding) was immobilized in a mixture of 50 ng of phosphatidyl choline, and 30 ng of cholesterol on polyvinyl chloride microtiter plates. Heparin-BSA (0.2 μg/well) was absorbed onto polyvinyl chloride microtiter plate wells by incubation of 50 μl of Dulbecco's PBS for 2 h at 37°. The wells were emptied and filled with 50 mM tris, pH 7.8 containing 150 mM NaCl, 1 mM CaCl2, 0.025% NaN3, and 1% BSA. After 30 minutes, the wells were emptied and 30 μl of various concentrations of potential inhibitory peptides diluted in the same buffer or buffer alone and 30 μl of ^125 I-labeled laminin, thrombospondin or apolipoprotein E (0.2 μg/ml) were added to each well. After 3 hours at 4°, the wells were washed 6 times with 0.15M NaCl, cut from the plate and the bound radioactivity counted. FIGS. 1A-B and 2A-B show the level of thrombospondin binding to sulfatide and heparin-BSA, respectively, in the presence of increasing concetrations of the peptides listed. FIGS. 3 and 4A-B show the level of laminin binding to sulfatide and heparin-BSA, respectively, in the presence of increasing concentrations of the listed peptides.
Microtiter plate wells were coated with heparin-BSA. Heparin-BSA (0.2 μg/well) was adsorbed by incubation in 50 μl of Dulbecco's PBS for 2 h at 370. The wells were emptied, filled with tris-BSA, and incubated for 30 to 60 minutes. The buffer was removed, and labelled thrombospondin was added and incubated in the wells for 3 h at 40. The wells were emptied and washed 4 times with saline. The bottoms of the wells were cut from the plate and counted to quantify thrombospondin binding. Inhibition of thrombospondin binding was determined using peptides diluted in 30 μl of 50 mM tris buffer, pH 7.8, containing 110 mM NaCl, 1 mM CaCl2, 0.025% NaN3, and 1% BSA or buffer alone and 30 μl of ^125 I-labeled TSP (0.2 μg/ml).

[2] = target: thrombospondin binding to sulfatide; assay: Inhibition of 125I-thrombospondin binding to sulfatide; design: species or system human; conditions: Table 1, free peptide
Experimental: as §1

[3] = target: laminin binding to heparin; assay: Inhibition of 125I-laminin binding to heparin-BSA; design: species or system mouse; conditions: for IC50: Table 2, free peptide
Experimental: as §1

[4] = target: laminin binding to sulfatide; assay: Inhibition of 125I-laminin binding to sulfatide; design: species or system mouse; conditions: Table 2, free peptide
Experimental: as §1

[5] = target: apolipoprotein E binding to heparin; assay: Inhibition of 125I-apolipoprotein E binding to heparin-BSA; conditions: Table 2, free peptide; read-out: IC50 Apo E Binding to Heparin
Experimental: as §1

[6] = target: basic fibroblast growth factor (FGF-2) binding to heparin; assay: Inhibition of 125I-bFGF binding to heparin-BSA conjugate
Experimental: Binding of ^125 I-bFGF to heparin was determined using an immobilized heparin-BSA conjugate as previously described (Guo, et al. (1992) Proc. Nat'l Acad. Sci. 89:3040-3044). ^125 I-bFGF, prepared as described by Neufeld, et al, (1985), J. Biol. Chem. 260:13860-13868, was added described above, and incubated for 2 hours at 25° C. Bound radioactivity was determined after washing and cutting the wells from the plate. FIGS. 40A, B and C show the inhibition of ^125 I-bFGF binding to heparin by a number of TSP peptide analogs.

[7] = tested on: MDA MB435 breast carcinoma cells; assay: MDA MB435 human breast carcinoma cell proliferation; assay type: cell-based
Experimental: Human breast carcinoma cells MDA MB435 (American Type Culture Collection) were grown in RPMI 1640 medium containing 10% fetal calf serum. Proliferation was determined as described in FIG. 18 and 44A, B and C.
Human breast carcinoma cells MDA MB435 (American Type Culture Collection) were grown in RPMI 1640 medium containing 10% fetal calf serum. Proliferation was determined in the presence of 0.5% fetal calf serum and bFGF as described in FIG. 19.

[8] = Table 1, free peptide, read-out: IC50 Heparin Binding, inhibition of 125I-thrombospondin binding
[9] = L-forward peptides, read-out: IC50 Inhibitory Activity
[10] = retro-inverso peptides, free, read-out: IC50 Inhibitory Activity, Free Peptide
[11] = retro-inverso peptides, read-out: IC50 for Inhibition of Binding

IC50 [1, 8] [µM]	IC50 [2] [µM]	IC50 [3] [µM]	IC50 [4] [µM]	IC50 [5] [µM]	IC50 [1, 10] [µM]	IC50 [6, 11] [µM]	Compound	also measured
					0.1	0.95	CC(=O)N[C@H](CS)C(=O)N[C@H](CO)C(=O)N[C@H](CO)C(=O)N[C@H](Cc1c[nH]c2ccccc12)C(=O)N1CCC[C@@H]1C(=O)N[C@H](CO)C(=O)N[C@H](Cc1c[nH]c2ccccc12)C(=O)N[C@H](Cc1c[nH]cn1)C(=O)N[C@H](CO)C(=O)N[C@H](Cc1c[nH]c2ccccc12)C(=O)NCC(=O)NCC(=O)N[C@H](CC(=O)O)C(=O)N[C@H](CCC(N)=O)C(=O)N[C@H](CCCCN)C(=O)N[C@H](C)C(=O)N[C@H](CCCNC(=N)N)C(=O)N[C@H](CCCCN)C(N)=O [Peptide 474, ri-amKRAKQDGGWSHWSPWSSCac] (Ac-[dC][dS][dS][dW][dP][dS][dW][dH][dS][dW]GG[dD][dQ][dK][dA][dR][dK]-NH2)	
					10	> 20	CC(=O)N[C@H](CS)C(=O)N[C@H](CO)C(=O)N[C@H](CO)C(=O)N[C@H](C)C(=O)N1CCC[C@@H]1C(=O)N[C@H](CO)C(=O)N[C@H](C)C(=O)N[C@H](Cc1c[nH]cn1)C(=O)N[C@H](CO)C(=O)N[C@H](C)C(=O)NCC(=O)NCC(=O)N[C@H](CC(=O)O)C(=O)N[C@H](CCC(N)=O)C(=O)N[C@H](CCCCN)C(=O)N[C@H](Cc1ccccc1)C(=O)N[C@H](CCCNC(=N)N)C(=O)N[C@H](CCCCN)C(N)=O [Peptide 475, ri-amKRFKQDGGASHASPASSCac] (Ac-[dC][dS][dS][dA][dP][dS][dA][dH][dS][dA]GG[dD][dQ][dK][dF][dR][dK]-NH2)	
					0.03	0.22	CC(=O)N[C@H](CS)C(=O)N[C@H](CO)C(=O)N[C@H](CO)C(=O)N[C@H](Cc1c[nH]c2ccccc12)C(=O)N1CCC[C@@H]1C(=O)N[C@H](CO)C(=O)N[C@H](Cc1c[nH]c2ccccc12)C(=O)N[C@H](Cc1c[nH]cn1)C(=O)N[C@H](CO)C(=O)N[C@H](Cc1c[nH]c2ccccc12)C(=O)NCC(=O)NCC(=O)N[C@H](C)C(=O)N[C@H](CCC(N)=O)C(=O)N[C@H](CCCCN)C(=O)N[C@H](C)C(=O)N[C@H](CCCNC(=N)N)C(=O)N[C@H](CCCCN)C(N)=O [Peptide 476, ri-amKRAKQAGGWSHWSPWSSCac] (Ac-[dC][dS][dS][dW][dP][dS][dW][dH][dS][dW]GG[dA][dQ][dK][dA][dR][dK]-NH2)	
					0.035	0.28	C[C@@H](NC(=O)CCS)C(=O)N[C@H](C)C(=O)N[C@H](CO)C(=O)N[C@H](Cc1c[nH]c2ccccc12)C(=O)N[C@H](Cc1c[nH]cn1)C(=O)N[C@H](CO)C(=O)N[C@H](Cc1c[nH]c2ccccc12)C(=O)NCC(=O)N[C@H](C)C(=O)N[C@H](CCC(N)=O)C(=O)N[C@H](CCCCN)C(=O)N[C@H](C)C(=O)N[C@H](CCCNC(=N)N)C(=O)N[C@H](CCCCN)C(N)=O [Peptide 525, ri-amKRAKQAGWSHWSAAtc] ([Mpa][dA][dA][dS][dW][dH][dS][dW]G[dA][dQ][dK][dA][dR][dK]-NH2)	

Continued, compound first:

Compound	IC50 [1, 8] [µM]	IC50 [2] [µM]	IC50 [3] [µM]	IC50 [4] [µM]	IC50 [5] [µM]	IC50 [1, 10] [µM]	IC50 [6, 11] [µM]	also measured
CC[C@H](C)[C@H](NC(=O)[C@H](CC(=O)O)NC(=O)[C@H](Cc1c[nH]c2ccccc12)NC(=O)[C@@H]1CCCN1C(=O)[C@H](CO)NC(=O)[C@H](Cc1c[nH]c2ccccc12)NC(=O)[C@@H]1CCCN1C(=O)CN)C(=O)N[C@@H](CS)C(=O)N[C@@H](CO)C(=O)N[C@H](C(=O)N[C@H](C(=O)O)[C@@H](C)O)C(C)C [Peptide 186, GPWSPWDICSVT] (H-GPWSPWDICSVT-OH)	8.5	27	15	35	52			
N[C@@H](CO)C(=O)N[C@@H](Cc1c[nH]cn1)C(=O)N[C@@H](Cc1c[nH]c2ccccc12)C(=O)N[C@@H](CO)C(=O)N1CCC[C@H]1C(=O)N[C@@H](Cc1c[nH]c2ccccc12)C(=O)N[C@@H](CO)C(=O)N[C@@H](CO)C(=O)O [Peptide 239, SHWSPWSS] (H-SHWSPWSS-OH)	5.2	10	11	12	250			inhibition of thrombospondin binding to heparin, in words [1]: more active than the intact dodecapeptide
N[C@@H](Cc1c[nH]c2ccccc12)C(=O)N[C@@H](CO)C(=O)N1CCC[C@H]1C(=O)N[C@@H](Cc1c[nH]c2ccccc12)C(=O)N[C@@H](CO)C(=O)N[C@@H](CO)C(=O)N[C@@H](CS)C(=O)N[C@@H](CO)C(=O)O [Peptide 240, WSPWSSCS] (H-WSPWSSCS-OH)	66	100	100	100	150			
CC(C)[C@H](NC(=O)[C@H](CO)NC(=O)[C@H](CS)NC(=O)[C@H](CO)NC(=O)[C@H](CO)NC(=O)[C@H](Cc1c[nH]c2ccccc12)NC(=O)[C@@H]1CCCN1C(=O)[C@H](CO)NC(=O)[C@@H](N)Cc1c[nH]c2ccccc12)C(=O)N[C@H](C(=O)O)[C@@H](C)O [Peptide 241, WSPWSSCSVT] (H-WSPWSSCSVT-OH)	35	34	34	50	180			
C[C@H](NC(=O)[C@H](Cc1c[nH]cn1)NC(=O)[C@@H](N)CO)C(=O)N[C@@H](CO)C(=O)N1CCC[C@H]1C(=O)N[C@@H](C)C(=O)N[C@@H](CO)C(=O)N[C@@H](CO)C(=O)O [Peptide 244, SHASPASS] (H-SHASPASS-OH)	> 200	> 200	> 200		> 200			fold less active than the natural sequence SHWSPWSS ([1]; Trp replaced by Ala): more than 100 fold
NCC(=O)NCC(=O)N[C@@H](Cc1c[nH]c2ccccc12)C(=O)N[C@@H](CO)C(=O)N[C@@H](Cc1c[nH]cn1)C(=O)N[C@@H](Cc1c[nH]c2ccccc12)C(=O)N[C@@H](CO)C(=O)N1CCC[C@H]1C(=O)N[C@@H](Cc1c[nH]c2ccccc12)C(=O)N[C@@H](CO)C(=O)N[C@@H](CO)C(=O)O [Peptide 256, GGWSHWSPWSS] (H-GGWSHWSPWSS-OH)								inhibition of thrombospondin binding to heparin, in words [1]: decreased activity; inhibition of laminin binding, in words ([3]; free peptide): increased activity; IC50 [6, 9]: > 40 µM
CC(=O)N[C@@H](CCCCN)C(=O)N[C@@H](CCCNC(=N)N)C(=O)N[C@@H](C)C(=O)N[C@@H](CCCCN)C(=O)N[C@@H](CCC(N)=O)C(=O)N[C@@H](C)C(=O)NCC(=O)NCC(=O)N[C@@H](Cc1c[nH]c2ccccc12)C(=O)N[C@@H](CO)C(=O)N[C@@H](Cc1c[nH]cn1)C(=O)N[C@@H](Cc1c[nH]c2ccccc12)C(=O)N[C@@H](C)C(=O)N[C@@H](C)C(=O)N[C@@H](CS)C(N)=O [acKRAKQAGGWSHWAACam] (Ac-KRAKQAGGWSHWAAC-NH2)								IC50 ([1]; L-forward peptides, free, read-out: IC50 Inhibitory Activity, Free Peptide): 0.045 µM; IC50 [6, 9]: 0.41 µM
KRFKQDGGWSHWSPWSSC [Peptide 364]								inhibition of MDA435 proliferation, in words ([7]; FICOLL conjugate): strongly inhibited proliferation; fold less active than native thrombospondin ([7]; from dose response curves, 0.5% fetal calf serum and bFGF): approximately 10 fold; activity relative to native thrombospondin on a subunit molar basis ([7]; subunit molar basis): about three-fold less active
